According to patent US20070275962A1, “Heterobicyclic Compounds as Pharmaceutically Active Agents” (GPC BIOTECH AG, priority 2003, published 2007):

Experiments:
CDK2/CycA = CDK2/CycA (Homo sapiens, UniProt P24941); assay: General kinase assay: CDK2/CycA; format: biochemical; details: concentration 10 μM; read-out: Inhibitory effect on Target CDK2/CycA
Method: (§1) General Assay Protocol for all Kinases [[[…]]] [[[…]]] Reaction Buffer: Final Assay Concentrations: [[[…]]] Pipetting Sequence: • 1) Add 8 μl 50 μM MBP in Reaction Buffer to each well of Assay Plate • 2) Add 10 μl 500 mM EDTA in H2O to C- wells • 3) Add 8 μl 62.5 μCi/ml Adenosine 5'-[γ-^33P]triphosphate+5 μM ATP in Reaction Buffer to each well • 4) Add 8 μl 5 fold concentrated inhibitor in 5% DMSO in Reaction Buffer to each well except to C- and C+ wells • 5) Add 8 μl 5% DMSO in Reaction Buffer to C- and C+ wells • 6) Add 8 μl 5 fold concentrated kinase in Reaction Buffer to each well • 7) Incubate 1 hr at room temperature • 8) Add 10 μl 50 mM EDTA in H2O to each well except to C- wells • 9) Prepare MAPH plates by adding 200 μl 0.75% H3PO4 to each well • 10) Exhaust 0.75% H3PO4 using Millipore vacuum station • 11) Add 60 μl 0.75% H3PO4 to each well of MAPH Filter Plate • 12) Transfer 30 μl sample per well from Assay Plate to corresponding well of MAPH Filter Plate • 13) Incubate 30 min at room temperature • 14) Wash each well of MAPH Filter Plates 3× with 200 μl 0.75% H3PO4 using Millipore vacuum station • 15) Add 20 μl Szintilation Liquid to each well of MAPH Filter Plate • 16) Seal MAPH Filter Plate • 17) Store MAPH Filter Plate 30 min in darkness • 18) Quantify radioactivity

CK1-alpha GST = biological target: T1, CK1-alpha GST (Homo sapiens, UniProt P48729); assay: General kinase assay: CK1-alpha; format: biochemical; details: concentration 10 μM; read-out: Inhibitory effect on Target CK1-alpha GST
T1 construct: GST
Method: as §1

EGFR GST-HIS = biological target: T2, EGFR GST-HIS (Homo sapiens, UniProt P00533); assay: General kinase assay: EGFR; format: biochemical; details: concentration 10 μM; read-out: Inhibitory effect on Target EGFR GST-HIS
T2 construct: GST; His
Method: as §1

GSK-3beta HIS = biological target: T3, GSK-3beta HIS (Homo sapiens, UniProt P49841); assay: General kinase assay: GSK-3beta; format: biochemical; details: concentration 10 μM; read-out: Inhibitory effect on Target GSK-3beta HIS
T3 construct: His
Method: as §1

Jnk1a1 HIS = biological target: T4, Jnk1a1 HIS (Homo sapiens, UniProt P45983); assay: General kinase assay: Jnk1a1; format: biochemical; details: concentration 10 μM; read-out: Inhibitory effect on Target Jnk1a1 HIS
T4 construct: His
Method: as §1

Kit human GST = biological target: T5, Kit human GST (Homo sapiens, UniProt P10721); assay: General kinase assay: Kit; format: biochemical; details: concentration 10 μM; read-out: Inhibitory effect on Target Kit human GST
T5 construct: GST
Method: as §1

PDGFRbeta GST = biological target: T6, PDGFRbeta GST (Homo sapiens, UniProt P09619); assay: General kinase assay: PDGFRbeta; format: biochemical; details: concentration 10 μM; read-out: Inhibitory effect on Target PDGFRbeta GST
T6 construct: GST
Method: as §1

RICK-STREP 1 = biological target: T7, RICK-STREP 1 (Homo sapiens, UniProt O43353); assay: General kinase assay: RICK; format: biochemical; details: concentration 10 μM; read-out: Inhibitory effect on Target RICK-STREP 1
T7 construct: Strep
Method: as §1

ROCK2 human HIS = biological target: T8, ROCK2 human HIS (Homo sapiens, UniProt O75116); assay: General kinase assay: ROCK2; format: biochemical; details: concentration 10 μM; read-out: Inhibitory effect on Target ROCK2 human HIS
T8 construct: His
Method: as §1

RSK1 act. HIS = biological target: T9, RSK1 act. HIS (Homo sapiens, UniProt Q15418); assay: General kinase assay: RSK1; format: biochemical; details: concentration 10 μM; read-out: Inhibitory effect on Target RSK1 act. HIS
T9 construct: His
Method: as §1

SRPK1 GST = biological target: T10, SRPK1 GST (Homo sapiens, UniProt Q96SB4); assay: General kinase assay: SRPK1; format: biochemical; details: concentration 10 μM; read-out: Inhibitory effect on Target SRPK1 GST
T10 construct: GST
Method: as §1

c-Src HIS = biological target: T11, c-Src HIS (Homo sapiens, UniProt P12931); assay: General kinase assay: c-Src; format: biochemical; details: concentration 10 μM; read-out: Inhibitory effect on Target c-Src HIS
T11 construct: His
Method: as §1

p70S6K HIS = assay: General kinase assay: p70S6K; format: biochemical; details: concentration 10 μM
Method: as §1

cMet GST-HIS = biological target: T12, cMet GST-HIS (Homo sapiens, UniProt P08581); assay: General kinase assay: cMet; format: biochemical; details: concentration 10 μM; read-out: Inhibitory effect on Target cMet GST-HIS
T12 construct: GST; His
Method: as §1

AKT1/PKBa act. HIS = biological target: T13, AKT1/PKBa act. HIS (Homo sapiens, UniProt P31749); assay: General kinase assay (MBP, 33P-ATP, filter plate): AKT1/PKBa; format: biochemical; details: concentration 10 μM; read-out: Inhibitory effect on Target AKT1/PKBa act. HIS
T13 construct: His
Method: as §1

IKKbeta HIS = biological target: T14, IKKbeta HIS (Homo sapiens, UniProt O14920); assay: General kinase assay: IKKbeta; format: biochemical; details: concentration 10 μM; read-out: Inhibitory effect on Target IKKbeta HIS
T14 construct: His
T14 sequence (O14920 1-756): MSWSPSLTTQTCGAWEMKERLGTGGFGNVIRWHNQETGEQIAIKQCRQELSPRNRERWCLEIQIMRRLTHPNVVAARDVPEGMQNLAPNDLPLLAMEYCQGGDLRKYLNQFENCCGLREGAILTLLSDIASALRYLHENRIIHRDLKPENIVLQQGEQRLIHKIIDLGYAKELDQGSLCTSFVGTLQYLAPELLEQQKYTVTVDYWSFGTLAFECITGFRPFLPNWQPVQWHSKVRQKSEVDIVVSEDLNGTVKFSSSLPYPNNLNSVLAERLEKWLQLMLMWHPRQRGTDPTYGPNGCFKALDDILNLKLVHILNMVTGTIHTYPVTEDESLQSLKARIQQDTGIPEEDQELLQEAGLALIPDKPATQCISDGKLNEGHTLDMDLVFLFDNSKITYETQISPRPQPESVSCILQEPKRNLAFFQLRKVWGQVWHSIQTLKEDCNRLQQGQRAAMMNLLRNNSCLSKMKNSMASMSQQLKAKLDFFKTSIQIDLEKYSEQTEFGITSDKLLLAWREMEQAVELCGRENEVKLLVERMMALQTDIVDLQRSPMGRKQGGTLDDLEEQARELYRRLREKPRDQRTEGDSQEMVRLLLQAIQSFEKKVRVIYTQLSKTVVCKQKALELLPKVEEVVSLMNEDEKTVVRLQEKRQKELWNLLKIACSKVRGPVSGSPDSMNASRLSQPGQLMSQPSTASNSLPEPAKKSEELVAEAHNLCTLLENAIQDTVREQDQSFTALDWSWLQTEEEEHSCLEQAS
Method: as §1

InsR GST = biological target: T15, InsR GST (Homo sapiens, UniProt P06213); assay: General kinase assay: InsR; format: biochemical; details: concentration 10 μM; read-out: Inhibitory effect on Target InsR GST
T15 construct: GST
Method: as §1

CDK1/CycB act.GST-HIS = CDK1/CycB act.GST-HIS (Homo sapiens, UniProt P06493); assay: General kinase assay: CDK1/CycB; format: biochemical; details: concentration 10 μM; read-out: Inhibitory effect on Target CDK1/CycB act.GST-HIS
Method: as §1

[1] = biological target: T16, mycobacterial protein kinase G (PknG) (Mycobacterium tuberculosis, UniProt P9WI73); assay: biochemical; details: read-out: Inhibition of PknG (IC50, [μM])
T16 construct: GST; made in house; host or cells: E. coli BL21

T6 sequence (P09619 33-1106): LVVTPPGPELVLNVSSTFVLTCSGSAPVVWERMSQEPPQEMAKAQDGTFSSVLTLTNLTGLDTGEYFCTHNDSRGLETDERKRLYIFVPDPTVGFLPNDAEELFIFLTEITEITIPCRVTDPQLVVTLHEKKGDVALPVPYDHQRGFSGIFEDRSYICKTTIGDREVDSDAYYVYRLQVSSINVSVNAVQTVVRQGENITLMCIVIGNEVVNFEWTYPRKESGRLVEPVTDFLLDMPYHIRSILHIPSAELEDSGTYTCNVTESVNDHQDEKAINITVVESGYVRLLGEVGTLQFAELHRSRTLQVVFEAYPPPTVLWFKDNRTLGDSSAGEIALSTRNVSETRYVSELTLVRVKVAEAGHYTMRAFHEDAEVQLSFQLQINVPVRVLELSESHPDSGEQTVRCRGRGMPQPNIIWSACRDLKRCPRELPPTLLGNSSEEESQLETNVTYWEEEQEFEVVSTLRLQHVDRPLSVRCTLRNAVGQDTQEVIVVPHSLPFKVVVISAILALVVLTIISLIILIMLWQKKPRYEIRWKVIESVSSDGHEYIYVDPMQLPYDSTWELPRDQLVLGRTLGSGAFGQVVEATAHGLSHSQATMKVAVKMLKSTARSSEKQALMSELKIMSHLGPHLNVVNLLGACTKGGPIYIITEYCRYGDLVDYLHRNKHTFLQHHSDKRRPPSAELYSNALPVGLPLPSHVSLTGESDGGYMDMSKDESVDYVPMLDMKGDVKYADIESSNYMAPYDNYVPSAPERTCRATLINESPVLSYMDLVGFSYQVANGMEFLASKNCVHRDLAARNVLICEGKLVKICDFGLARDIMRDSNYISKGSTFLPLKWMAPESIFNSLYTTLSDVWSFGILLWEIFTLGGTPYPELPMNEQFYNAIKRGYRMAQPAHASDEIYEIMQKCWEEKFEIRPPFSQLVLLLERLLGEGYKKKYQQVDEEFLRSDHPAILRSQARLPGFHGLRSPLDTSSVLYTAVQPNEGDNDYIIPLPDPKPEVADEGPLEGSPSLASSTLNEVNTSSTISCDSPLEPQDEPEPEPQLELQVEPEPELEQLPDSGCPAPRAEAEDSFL
T2 sequence (P00533 25-1210): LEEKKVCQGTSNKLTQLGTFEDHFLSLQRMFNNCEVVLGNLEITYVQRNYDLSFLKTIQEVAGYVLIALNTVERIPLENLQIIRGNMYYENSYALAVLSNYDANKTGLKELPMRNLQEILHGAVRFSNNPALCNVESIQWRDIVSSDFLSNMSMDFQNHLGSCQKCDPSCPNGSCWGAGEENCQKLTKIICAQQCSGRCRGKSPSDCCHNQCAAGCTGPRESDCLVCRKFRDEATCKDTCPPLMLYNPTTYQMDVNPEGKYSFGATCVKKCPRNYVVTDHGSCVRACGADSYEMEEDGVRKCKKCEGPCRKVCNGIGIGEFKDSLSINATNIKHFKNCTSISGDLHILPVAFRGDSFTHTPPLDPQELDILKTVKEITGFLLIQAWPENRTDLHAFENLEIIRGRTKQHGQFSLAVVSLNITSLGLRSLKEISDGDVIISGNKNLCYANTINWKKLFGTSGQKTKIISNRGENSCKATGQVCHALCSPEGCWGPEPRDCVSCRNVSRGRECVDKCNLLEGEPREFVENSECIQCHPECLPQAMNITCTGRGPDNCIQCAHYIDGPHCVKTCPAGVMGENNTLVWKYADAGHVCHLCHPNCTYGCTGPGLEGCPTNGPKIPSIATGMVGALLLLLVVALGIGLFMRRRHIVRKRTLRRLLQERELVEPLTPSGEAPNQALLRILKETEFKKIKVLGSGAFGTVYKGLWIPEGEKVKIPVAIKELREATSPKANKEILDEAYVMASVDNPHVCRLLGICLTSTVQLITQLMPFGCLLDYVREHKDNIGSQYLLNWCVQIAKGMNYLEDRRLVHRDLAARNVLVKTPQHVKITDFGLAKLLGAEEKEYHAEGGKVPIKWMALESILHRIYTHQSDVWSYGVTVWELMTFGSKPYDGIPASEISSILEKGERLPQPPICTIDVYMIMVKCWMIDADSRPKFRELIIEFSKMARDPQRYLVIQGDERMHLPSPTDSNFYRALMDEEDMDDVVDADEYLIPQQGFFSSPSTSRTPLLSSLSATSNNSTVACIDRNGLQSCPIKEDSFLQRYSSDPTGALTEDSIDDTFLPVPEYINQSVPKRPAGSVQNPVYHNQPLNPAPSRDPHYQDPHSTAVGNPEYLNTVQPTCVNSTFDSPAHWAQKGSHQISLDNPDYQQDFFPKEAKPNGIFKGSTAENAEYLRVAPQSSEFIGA
T7 sequence (O43353 whole entry): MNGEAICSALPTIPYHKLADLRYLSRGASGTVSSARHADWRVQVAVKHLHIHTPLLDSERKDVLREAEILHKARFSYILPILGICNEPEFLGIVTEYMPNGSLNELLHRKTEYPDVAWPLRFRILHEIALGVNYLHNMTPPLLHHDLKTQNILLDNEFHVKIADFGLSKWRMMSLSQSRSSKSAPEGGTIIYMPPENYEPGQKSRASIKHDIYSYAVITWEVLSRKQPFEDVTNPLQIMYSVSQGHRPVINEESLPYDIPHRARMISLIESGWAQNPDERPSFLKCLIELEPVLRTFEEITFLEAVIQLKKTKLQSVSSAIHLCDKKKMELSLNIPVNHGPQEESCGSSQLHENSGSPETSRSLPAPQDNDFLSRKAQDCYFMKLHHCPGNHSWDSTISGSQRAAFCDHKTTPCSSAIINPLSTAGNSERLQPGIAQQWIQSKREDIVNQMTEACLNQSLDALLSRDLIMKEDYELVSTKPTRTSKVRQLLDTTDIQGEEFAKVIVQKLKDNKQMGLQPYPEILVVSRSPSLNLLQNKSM
T3 sequence (P49841 whole entry): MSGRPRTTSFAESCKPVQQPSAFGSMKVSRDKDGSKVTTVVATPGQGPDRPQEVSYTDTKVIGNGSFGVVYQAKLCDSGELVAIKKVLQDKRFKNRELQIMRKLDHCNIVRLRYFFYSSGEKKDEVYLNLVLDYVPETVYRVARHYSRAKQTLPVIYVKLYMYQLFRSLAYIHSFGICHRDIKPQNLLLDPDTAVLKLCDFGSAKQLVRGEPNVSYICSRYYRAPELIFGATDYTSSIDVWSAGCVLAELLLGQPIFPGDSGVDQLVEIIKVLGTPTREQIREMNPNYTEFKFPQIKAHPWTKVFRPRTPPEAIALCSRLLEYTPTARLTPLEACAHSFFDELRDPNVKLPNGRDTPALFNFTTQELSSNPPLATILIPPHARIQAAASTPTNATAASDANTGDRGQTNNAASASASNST
T1 sequence (P48729 whole entry): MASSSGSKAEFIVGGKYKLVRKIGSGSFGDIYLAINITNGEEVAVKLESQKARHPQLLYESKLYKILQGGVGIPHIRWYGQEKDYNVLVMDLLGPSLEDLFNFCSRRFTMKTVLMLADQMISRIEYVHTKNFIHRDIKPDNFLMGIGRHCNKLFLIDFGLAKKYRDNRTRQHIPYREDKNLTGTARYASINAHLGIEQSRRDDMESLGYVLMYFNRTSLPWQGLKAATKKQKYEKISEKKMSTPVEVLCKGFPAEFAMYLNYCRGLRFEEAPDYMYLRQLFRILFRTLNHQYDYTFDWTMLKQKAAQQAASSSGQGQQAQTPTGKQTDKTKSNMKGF
T10 sequence (Q96SB4 whole entry): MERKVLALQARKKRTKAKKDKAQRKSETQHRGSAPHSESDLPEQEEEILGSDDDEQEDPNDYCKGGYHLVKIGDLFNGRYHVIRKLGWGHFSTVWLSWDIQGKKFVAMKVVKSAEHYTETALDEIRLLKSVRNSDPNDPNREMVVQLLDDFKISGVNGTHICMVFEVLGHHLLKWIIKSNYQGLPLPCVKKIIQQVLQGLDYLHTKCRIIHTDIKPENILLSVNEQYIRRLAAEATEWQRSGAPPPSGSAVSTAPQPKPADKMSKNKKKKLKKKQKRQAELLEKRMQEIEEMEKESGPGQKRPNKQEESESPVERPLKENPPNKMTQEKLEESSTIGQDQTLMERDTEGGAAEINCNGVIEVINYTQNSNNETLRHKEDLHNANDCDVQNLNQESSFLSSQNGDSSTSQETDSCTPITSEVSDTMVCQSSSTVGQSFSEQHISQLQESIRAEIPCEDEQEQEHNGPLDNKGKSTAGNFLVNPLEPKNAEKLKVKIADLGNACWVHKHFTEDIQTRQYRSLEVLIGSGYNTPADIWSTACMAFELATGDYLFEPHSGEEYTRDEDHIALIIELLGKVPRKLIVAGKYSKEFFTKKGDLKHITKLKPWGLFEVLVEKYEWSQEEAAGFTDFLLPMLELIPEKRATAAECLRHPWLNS
T4 sequence (P45983 1-384 isoform P45983-2): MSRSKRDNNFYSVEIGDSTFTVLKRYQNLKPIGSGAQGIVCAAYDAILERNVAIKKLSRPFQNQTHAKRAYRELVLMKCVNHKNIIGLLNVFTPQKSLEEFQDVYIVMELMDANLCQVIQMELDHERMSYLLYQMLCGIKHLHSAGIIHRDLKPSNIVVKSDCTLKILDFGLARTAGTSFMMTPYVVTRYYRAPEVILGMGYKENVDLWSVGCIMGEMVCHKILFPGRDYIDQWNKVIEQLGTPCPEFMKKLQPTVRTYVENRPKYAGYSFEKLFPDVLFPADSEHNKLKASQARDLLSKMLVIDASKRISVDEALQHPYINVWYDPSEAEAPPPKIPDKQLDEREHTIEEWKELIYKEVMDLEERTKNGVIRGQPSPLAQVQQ

Row | SMILES | inhibition at 10 µM (CDK2/CycA) | inhibition at 10 µM (CK1-alpha GST) | inhibition at 10 µM (EGFR GST-HIS) | inhibition at 10 µM (GSK-3beta HIS) | inhibition at 10 µM (Jnk1a1 HIS) | inhibition at 10 µM (Kit human GST) | inhibition at 10 µM (PDGFRbeta GST) | inhibition at 10 µM (RICK-STREP 1) | inhibition at 10 µM (ROCK2 human HIS) | inhibition at 10 µM (RSK1 act. HIS) | inhibition at 10 µM (SRPK1 GST) | inhibition at 10 µM (c-Src HIS) | Inhibitory effect on Target p70S6K HIS (p70S6K HIS) | inhibition at 10 µM (cMet GST-HIS) | inhibition at 10 µM (AKT1/PKBa act. HIS) | inhibition at 10 µM (IKKbeta HIS) | inhibition at 10 µM (InsR GST) | inhibition at 10 µM (CDK1/CycB act.GST-HIS) | IC50 [1]
1 | NC(=O)c1c(NC(=O)Nc2ccccc2)sc2cc(O)ccc12 [Compound A12, 6-Hydroxy-2-(3-phenyl-ureido)-benzo[b]thiophene-3-carboxylic acid amide] | > 50% | > 50% | > 50% | > 50% | > 50% | > 50% | > 50% | > 50% | > 50% | > 50% | > 50% | > 50% | + (+ = >50% inhibition at concentration 10 μM) |  |  |  |  |  | 
2 | NC(=O)c1c(NC(=O)C2CC2)sc2c(O)c(Br)ccc12 [Compound A15, 6-Bromo-2-(cyclopropanecarbonyl-amino)-7-hydroxy-benzo[b]thiophene-3-carboxylic acid amide] |  | > 50% | > 50% | > 50% | > 50% |  | > 50% | > 50% |  |  | > 50% |  | + (+ = >50% inhibition at concentration 10 μM) | > 50% |  |  |  |  | 
3 | CC1CC1C(=O)Nc1sc2c(Cl)c(O)ccc2c1C(N)=O (stereo not drawn) [Compound A37, 7-Chloro-6-hydroxy-2-[(2-methyl-cyclopropanecarbonyl)-amino]-benzo[b]thiophene-3-carboxylic acid amide] | > 50% | > 50% | > 50% | > 50% | > 50% | > 50% | > 50% | > 50% |  | > 50% | > 50% |  | + (+ = >50% inhibition at concentration 10 μM) |  | > 50% | > 50% | > 50% |  | 
4 | NC(=O)c1c(NC(=O)Nc2ccc(F)cc2)sc2c1CCOC2 [Compound B13, 2-[3-(4-Fluoro-phenyl)-ureido]-4,7-dihydro-5H-thieno[2,3-c]pyran-3-carboxylic acid amide] |  |  |  |  |  | > 50% | > 50% |  |  |  | > 50% |  |  |  |  |  |  | > 50% | 
5 | NC(=O)c1c(NC(=O)C2CC2)sc2c1CCC(Br)(Br)C2=O [Compound D67, 6,6-Dibromo-2-(cyclopropanecarbonyl-amino)-7-oxo-4,5,6,7-tetrahydro-benzo[b]thiophene-3-carboxylic acid amide] | > 50% | > 50% | > 50% | > 50% |  |  |  | > 50% |  |  | > 50% |  |  | > 50% |  |  |  |  | 0.1 to 1 µM
6 | NN=C1CCc2c(sc(NC(=O)C3CC3)c2C(N)=O)C1 [Compound D115, 2-(Cyclopropanecarbonyl-amino)-6-hydrazono-4,5,6,7-tetrahydro-benzo[b]thiophene-3-carboxylic acid amide] | > 50% | > 50% | > 50% | > 50% |  | > 50% | > 50% | > 50% |  |  |  |  |  |  |  |  |  |  | 0.1 to 1 µM
7 | NC(=O)c1c(NC(=O)Nc2ccc(F)cc2)sc2c1CCC(=O)C2 [Compound D121, 2-[3-(4-Fluoro-phenyl)-ureido]-6-oxo-4,5,6,7-tetrahydro-benzo[b]thiophene-3-carboxylic acid amide] | > 50% | > 50% | > 50% | > 50% |  |  |  | > 50% |  |  | > 50% | > 50% |  |  |  |  |  |  | 
8 | NC(=O)c1c(NC(=O)Nc2ccc(F)cc2)sc2c1CCC(O)C2 (stereo not drawn) [Compound D142, 2-[3-(4-Fluoro-phenyl)-ureido]-6-hydroxy-4,5,6,7-tetrahydro-benzo[b]thiophene-3-carboxylic acid amide] | > 50% | > 50% |  |  |  |  |  | > 50% |  |  | > 50% | > 50% |  |  |  | > 50% |  |  | 
